Reference: patent publication US20200190210A1, “NEW TARGET FOR TREATING CANCER” (TONGJI UNIVERSITY SUZHOU INSTITUTE BIOMEDICAL RESEARCH …, priority 2017, published 2020)

Key:
[1] = tested on: p-STAT3 (TM4SF1 associated non-classical DDR1 signaling pathway); assay: Western Blotting of p-STAT3, TM4SF1 associated non-classical DDR1 signaling pathway, in cells overexpressing TM4SF1 and DDR1; type: cell-based, human; conditions: Collagen I 10 μg/ml, 12 hours, FIG. 10; for inhibition of P-STAT3 / downstream signal transduction (Western Blotting), peptide: cells overexpressing TM4SF1 and DDR1, PBS negative control
Description: The transfection method has been described in Example 4. 48 hours after transfection, the medium was removed, 2 ml of serum-free DMEM-HG medium containing a certain concentration of FC17-7 antibody obtained in Example 1 or IgG (as a negative control) was added. After incubating the culture dish at 37° C. for 5 minutes, Collagen I was added to the culture dish to a final concentration of 10 μg/ml and cultured for 12 hours. The cells were collected and lysed with IP-RIPA buffer in a refrigerator at 4° C. for 1 h. The lysate was sonicated twice (15 s 30% power), then centrifuged at 12,000 rpm for 30 min. The supernatant was sampled to determine the protein concentration, and the protein concentration of each sample was adjusted to be the same. The sample was subjected to SDS-PAGE electrophoresis, and the proteins were transferred to a membrane by conventional way in Western Blotting, and then stained with the antibody.
The transfection method has been described in Example 4. 48 hours after transfection, the medium was removed, 2 ml of serum-free DMEM-HG medium containing a certain concentration of the extracellular loop 1 peptide of TM4SF1 prepared in Example 3 or PBS (as a negative control) was added. After incubating the culture dish at 37° C. for 5 minutes, Collagen I was added to the culture dish to a final concentration of 10 μg/ml. The cells were cultured for 12 hours and then collected. The cells were lysed with IP-RIPA buffer in a refrigerator at 4° C. for 1 h. The lysate was sonicated twice (15 s 30% power), and then centrifuged at 12,000 rpm for 30 min. The supernatant was sampled to determine the protein concentration, and the protein concentration of each sample was adjusted to be the same. The sample was subjected to SDS-PAGE electrophoresis, and the proteins were transferred to a membrane by a conventional way used in Western Blotting, and then stained with antibody.

[2] = molecular target: T1, interaction of TM4SF1 and DDR1 (Homo sapiens, UniProt P30408); assay: Co-immunoprecipitation / Western Blotting of TM4SF1 and DDR1 co-overexpressed in 293FT cells, Collagen I stimulated; type: cell-based; conditions: 293FT cells co-overexpressing TM4SF1 and DDR1, peptide overexpressed in 293FT cells and purified, Collagen I 10 μg/ml, 6 hours, FIG. 9
T1 construct: expressed in transfected cells; host or cells: 293FT cells
T1 sequence (P30408 1-202): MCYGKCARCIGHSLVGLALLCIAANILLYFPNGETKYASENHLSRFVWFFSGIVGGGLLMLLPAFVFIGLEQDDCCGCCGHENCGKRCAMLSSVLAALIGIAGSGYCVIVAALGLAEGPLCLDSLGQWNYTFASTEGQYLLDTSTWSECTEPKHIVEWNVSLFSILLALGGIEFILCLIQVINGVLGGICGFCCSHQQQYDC
Description: 293FT cells were cultured in DMEM-HG medium and digested with trypsin. The cells were counted and seeded at a density of 1×10^6 cells per dish in 6 cm (diameter) culture dish. The next day, 700 μl of serum-free DMEM-HG medium was respectively added to two centrifuge tubes. 10 μl of P-Pei transfection reagent was added to the first centrifuge tube. 1 μg PQCXIP-hTM4SF1 plasmid and 1 μg PQCXIN-hDDR1 plasmid were added to the second centrifuge tube and mixed well. The resultant from the second centrifuge tube was added to the first centrifuge tube and incubated for 20 min to obtain the transfection mixture. The culture medium of the 293FT cells seeded the day before was removed, and the transfection mixture above was added to the culture dish and incubated for 6 hours. Fresh medium was added to continue the culture. 48 hours after the transfection, the medium was removed, 2 ml of serum-free DMEM-HG medium containing a certain concentration of FC17-7 antibody obtained in Example 1 or IgG (as a negative control) was added. After incubating the culture dish at 37° C. for 5 minutes, Collagen I was added to the culture dish to a final concentration of 10 μg/ml. The cells were cultured for 6 hours and then collected. […] After the elution, the mixture was centrifuged at 3,000 rpm for 2 min to collect the supernatant, and the protein expression was detected by Western Blotting. […]

[3] = tested on: MDAMB231-BoM-1833-TGL cells; assay: Breast cancer metastasis mouse model (ventricular injection of tumor cells, in vivo imaging, survival); conditions: peptide injected from Day -1 every other day; for metastasis of breast cancer, peptide: mice, IgG negative control, FIGS. 11 and 12
Description: The day before the injection of tumor cells into mice was recorded as Day −1 of the experiment. On Day −1, the mice were fasted for 4 hours, injected with the desired concentration of FC17-7 antibody obtained in Example 1 or IgG (as a negative control), and given food after 2 hours. After the first injection, the mice were injected with antibodies every three days. On Day 0 of the experiment, MDAMB231-BoM-1833-TGL cells were blocked with antibodies according to the method of Example 4. After 6 hours, the cells were digested. The medium was removed, and the cells were washed with PBS once and resuspended in PBS to a concentration of 1×10^6 cells/ml. Then, mice were injected with 1×10^5 tumor cells/100 μl by ventricular injection to establish a mouse metastasis model. Every other week, the mice were subjected to in vivo imaging to record the fluorescence signal data. By establishing a breast cancer metastasis model, periodically administration of the monoclonal antibody FC17-7 prepared in Example 1 was performed in mice.
The day before the injection of tumor cells into mice was recorded as Day −1 of the experiment. On Day −1, the mice were fasted for 4 hours, and injected with the desired concentration of the extracellular loop 1 peptide of TM4SF1 prepared in Example 3 or IgG (as negative control), and given food after 2 hours. After the first injection of the peptide, the mice were injected with the peptide every other day. On Day 0 of the experiment, MDAMB231-BoM-1833-TGL cells were blocked with the peptide according to the method of Example 9. After 6 hours, the cells were digested. The medium was removed, and the cells were washed with PBS once, and resuspended in PBS to a concentration of 1×10^6 cells/ml. For the method of establishing a breast cancer metastasis mouse model, refer to the method in Example 7.

[4] = listed as small extracellular loop 1 peptide of TM4SF1

Question: What does the source list for “FPNGETKYASENHLSRC [extracellular loop 1 peptide of TM4SF1]”?
Answer: inhibition of P-STAT3 / downstream signal transduction (Western Blotting), peptide [1]: began to inhibit P-STAT3; inhibition of P-STAT3 / downstream signal transduction (Western Blotting), peptide [1, 4]: inhibits downstream signal transduction; concentration at which the peptide began to inhibit P-STAT3 ([1]; different concentrations of peptide, dose-dependent): 9 µg/mL; disruption of the interaction between TM4SF1 and DDR1 (co-immunoprecipitation), peptide [2]: significantly disrupt the interaction between TM4SF1 and DDR1; disruption of the interaction between TM4SF1 and DDR1 (co-immunoprecipitation), peptide [2, 4]: disrupts the interaction between TM4SF1 and DDR1; metastasis of breast cancer, peptide [3]: significantly inhibit the metastasis of breast cancer; metastasis of breast cancer, peptide [3, 4]: significantly inhibits metastasis of breast cancer; survival time of the mice, peptide ([3]; FIG. 13): prolong the survival time of the mice; survival time of the mice, peptide ([3]; FIG. 13, listed as small extracellular loop 1 peptide of TM4SF1): prolongs the survival mice
